The values below come from US10674727B2, “Substituted oxadiazoles for combating phytopathogenic fungi” (priority 2015, dated 2020).

Structures are written as SMILES.

This assay has as its system Phakopsora pachyrhizi. In words: Protective control of soy bean rust on soy beans (glass house trial). Format: in vivo. The following applies: sprayed 2 days before inoculation, soy bean seedlings, untreated plants 90%. The method, then:
The spray solutions were prepared in several steps: The stock solution were prepared: a mixture of acetone and/or dimethylsulfoxide and the wetting agent/emulsifier Wettol, which is based on ethoxylated alkylphenoles, in a relation (volume) solvent-emulsifier of 99 to 1 was added to 25 mg of the compound to give a total of 5 ml. Water was then added to total volume of 100 ml. This stock solution was diluted with the described solvent-emulsifier-water mixture to the given concentration.
II.2) Protective control of soy bean rust on soy beans caused by Phakopsora pachyrhizi Leaves of pot-grown soy bean seedlings were sprayed to run-off with an aqueous suspension, containing the concentration of active ingredient or their mixture as described below. The plants were allowed to air-dry. The trial plants were cultivated for 2 day in a greenhouse chamber at 23 to 27° C. and a relative humidity between 60 and 80%. Then the plants were inoculated with spores of Phakopsora pachyrhizi. To ensure the success the artificial inoculation, the plants were transferred to a humid chamber with a relative humidity of about 95% and 20 to 24° C. for 24 h. The trial plants were cultivated for fourteen days in a greenhouse chamber at 23 to 27° C. and a relative humidity between 60 and 80%. The extent of fungal attack on the leaves was visually assessed as % diseased leaf area.

`CNC(c1ccc(-c2noc(C(F)(F)F)n2)cc1)C(F)(F)F` (stereo not shown) [Ex-1] returned a diseased leaf area (32 ppm active compound) of 0%.

`C=CCN(Cc1ccc(-c2noc(C(F)(F)F)n2)cc1)C(C)=O` [Ex-4] came in with a diseased leaf area (32 ppm active compound) of 0%.

Turning to `C=CCN(Cc1ccc(-c2noc(C(F)(F)F)n2)cc1)C(=O)CC` [Ex-5], the diseased leaf area (32 ppm active compound) turned out to be 0%.

The compound `C=CCN(Cc1ccc(-c2noc(C(F)(F)F)n2)cc1)C(=O)C(C)(C)C` [Ex-6] showed a diseased leaf area (32 ppm active compound) of 0%.

On to `CCC(=O)N(C)Cc1ccc(-c2noc(C(F)(F)F)n2)cc1` [Ex-7], for which the diseased leaf area (32 ppm active compound) is listed as 0%.

Compound `CN(Cc1ccc(-c2noc(C(F)(F)F)n2)cc1)C(=O)C(C)(C)C` [Ex-8] came in with a diseased leaf area (32 ppm active compound) of 0%.

For the setting “32 ppm active compound”, `CCC(=O)N(Cc1ccc(-c2noc(C(F)(F)F)n2)cc1)C(C)C` [Ex-9] came in with a diseased leaf area of 0%.

`CC(C)N(Cc1ccc(-c2noc(C(F)(F)F)n2)cc1)C(=O)C(C)(C)C` [Ex-10] displayed a diseased leaf area (32 ppm active compound) of 0%.

In turn, `CCC(CC)C(=O)N(C)Cc1ccc(-c2noc(C(F)(F)F)n2)cc1` [Ex-11] displayed a diseased leaf area (32 ppm active compound) of 0%.

In the case of `CCCC(=O)N(C)Cc1ccc(-c2noc(C(F)(F)F)n2)cc1` [Ex-12], the diseased leaf area (32 ppm active compound) was found to be 0%.

In the case of `CC(C)C(=O)N(C)Cc1ccc(-c2noc(C(F)(F)F)n2)cc1` [Ex-13, N,2-dimethyl-N[[4-[5-(trifluoromethyl)-1,2,4-oxadiazol-3-yl]phenyl]methyl]propanamide], the diseased leaf area (32 ppm active compound) was determined as 0%.

Regarding `CCC(C)C(=O)N(C)Cc1ccc(-c2noc(C(F)(F)F)n2)cc1` (stereo not shown) [Ex-14], for the setting “32 ppm active compound”, the diseased leaf area is 0%.

`CC(=O)NCc1ccc(-c2noc(C(F)(F)F)n2)cc1` [Ex-15] registered a diseased leaf area (32 ppm active compound) of 0%.

For the setting “32 ppm active compound”, `CC(=O)N(C)C(C)c1ccc(-c2noc(C(F)(F)F)n2)cc1` (stereo not shown) [Ex-16, N-methyl-N-[1-[4-[5-(trifluoromethyl)-1,2,4-oxadiazol-3-yl]phenyl]ethyl]acetamide] gave a diseased leaf area of 0%.

The compound `CC(c1ccc(-c2noc(C(F)(F)F)n2)cc1)N(C)C(=O)C(C)(C)C` (stereo not shown) [Ex-17] displayed a diseased leaf area (32 ppm active compound) of 0%.

In turn, `CCC(=O)N(C)C(C)c1ccc(-c2noc(C(F)(F)F)n2)cc1` (stereo not shown) [Ex-18] returned a diseased leaf area (32 ppm active compound) of 0%.

As to `CCCC(=O)N(C)C(C)c1ccc(-c2noc(C(F)(F)F)n2)cc1` (stereo not shown) [Ex-19], the diseased leaf area (32 ppm active compound) came out at 0%.

`CCC(CC)C(=O)N(C)C(C)c1ccc(-c2noc(C(F)(F)F)n2)cc1` (stereo not shown) [Ex-20] returned a diseased leaf area (32 ppm active compound) of 0%.

The compound `CC(C)C(=O)N(C)C(C)c1ccc(-c2noc(C(F)(F)F)n2)cc1` (stereo not shown) [Ex-21] showed a diseased leaf area (32 ppm active compound) of 0%.

Turning to `CCC(C)C(=O)N(C)C(C)c1ccc(-c2noc(C(F)(F)F)n2)cc1` (stereo not shown) [Ex-22], under “32 ppm active compound”, the diseased leaf area turned out to be 0%.

`CC(=O)NC(c1ccc(-c2noc(C(F)(F)F)n2)cc1)C(F)(F)F` (stereo not shown) [Ex-23] gave a diseased leaf area (32 ppm active compound) of 0%.

In turn, `CCN(Cc1ccc(-c2noc(C(F)(F)F)n2)cc1)C(=O)C(C)C` [Ex-24] came in with a diseased leaf area (16 ppm active compound) of 0%.

Turning to `CCCC(=O)N(CC)Cc1ccc(-c2noc(C(F)(F)F)n2)cc1` [Ex-25], the diseased leaf area (16 ppm active compound) turned out to be 0%.

For the compound `CCC(=O)N(CC)Cc1ccc(-c2noc(C(F)(F)F)n2)cc1` [Ex-26], for the setting “16 ppm active compound”, the diseased leaf area came out at 0%.

`CCN(Cc1ccc(-c2noc(C(F)(F)F)n2)cc1)C(=O)C(C)(C)C` [Ex-27] registered a diseased leaf area (16 ppm active compound) of 0%.

As for `CCC(C)C(=O)N(CC)Cc1ccc(-c2noc(C(F)(F)F)n2)cc1` (stereo not shown) [Ex-28], the diseased leaf area (32 ppm active compound) is listed as 0%.

Compound `CC(C)CC1CCN(Cc2ccc(-c3noc(C(F)(F)F)n3)cc2)C1=O` (stereo not shown) [Ex-29] gave a diseased leaf area (32 ppm active compound) of 0%.

`O=C1CCCN1Cc1ccc(-c2noc(C(F)(F)F)n2)cc1` [Ex-30, 1-[[4-[5-(trifluoromethyl)-1,2,4-oxadiazol-3-yl]phenyl]methyl] pyrrolidin-2-one] yielded a diseased leaf area (32 ppm active compound) of 0%.

As to `CC1(C)CC(=O)N(Cc2ccc(-c3noc(C(F)(F)F)n3)cc2)C1` [Ex-31], the diseased leaf area (32 ppm active compound) is 0%.

In turn, `CC1CCN(Cc2ccc(-c3noc(C(F)(F)F)n3)cc2)C1=O` (stereo not shown) [Ex-32] yielded a diseased leaf area (32 ppm active compound) of 0%.

Where the note is “32 ppm active compound”, `CC1(C)CCC(=O)N(Cc2ccc(-c3noc(C(F)(F)F)n3)cc2)C1` [Ex-33] gave a diseased leaf area of 0%.
